What was measured:
[1] = system: in vitro HPV16 DNA replication; experiment: In vitro replication of HPV16 DNA (293 cell extract, EE-E1, HPV16 E2); type: biochemical; conditions: 40 ng EE-E1 and 6 ng HPV16 E2, FIG. 7
Experimental: (§1) In vitro replication reactions. In vitro replication reactions were essentially as described by Kuo et al. (18) in 25 μl reactions at 37° C. for indicated times. Standard reactions were for 2 hours, and were terminated by addition of 200 μl stop solution (20 mM Tris-HCl pH 7.5, 10 mM EDTA, 0.1% SDS, and 20 μg/ml RNase A). After incubation at 37° C. for 15 minutes, proteinase K was added (200 μg/ml) and incubation was continued 30 minutes. Samples were extracted with 250 μl phenol/chloroform/isoamyl alcohol (25:24:1), ethanol precipitated, washed with 70% ethanol, dried, resuspended in 20-30μl TE, and analyzed on a 0.8% agarose gel (TAE). The agarose gel was dried onto Hybond N+ membrane (Amersham), and replicated DNA was visualized by autoradiography. Bands were quantitated by Phosphorimager analysis. Replication templates were pKS7838-7905 (nt7838-7905/1-130) containing the HPV16 replication origin, and pUC7874-99 containing the HPV11 origin of replication (nt7874-7933/1-99). pUC7874-99 was a generously provided by Dr. Louise Chow.
We sought to establish a system for the study of HPV16 DNA replication in vitro, and to determine whether specific interaction between HPV16 E1 and E2 was required for HPV16 DNA replication in this system. […] As has been documented for other papillomavirus E1 proteins, some replication was observed using relatively large amounts of E1 in the absence of E2 (lanes 2 through 7) (6, 16, 22, 33, 40, 48). […] Replication in this assay is ori-dependent, since the small amount of replication of the pKS plasmid lacking the HPV16 origin detected at high concentrations of EE-E1 (FIG. 3B, lanes 1-6) was not stimulated by E2 (FIG. 1B, lanes 7-12).
Since the E2N-WP23 and E2N-WP 15 peptides could inhibit interaction between […] E1 and E2, their ability to inhibit in vitro HPV16 DNA replication was also tested (FIGS. 7A and 7B).

[2] = system: HPV16 E2/HPV11 E1 dependent replication of the HPV11 origin; experiment: In vitro replication of the HPV11 origin with HPV11 E1 and HPV16 E2; type: biochemical
Experimental: as §1
The ability of the E2N-WP15 peptide to inhibit HPV11 E1 mediated replication in vitro was also tested. As shown in FIG. 7B (lanes 1-9), HPV11 E1 could cooperate with HPV16 E2 in supporting dose responsive in vitro replication of the HPV11 ori. […]

[3] = target: T1, interaction between HPV11 E1 and HPV16 E2 (Human papillomavirus 11, UniProt P04014); experiment: In vitro HPV E1-E2 binding assay, HPV11 E1 and HPV16 E2
T1 construct: made in house; host or cells: Hi-Five insect cells infected with recombinant baculovirus (HPV-11 EE-E1 virus a gift from Louise Chow); nuclear extracts
T1 sequence (P04014 whole entry): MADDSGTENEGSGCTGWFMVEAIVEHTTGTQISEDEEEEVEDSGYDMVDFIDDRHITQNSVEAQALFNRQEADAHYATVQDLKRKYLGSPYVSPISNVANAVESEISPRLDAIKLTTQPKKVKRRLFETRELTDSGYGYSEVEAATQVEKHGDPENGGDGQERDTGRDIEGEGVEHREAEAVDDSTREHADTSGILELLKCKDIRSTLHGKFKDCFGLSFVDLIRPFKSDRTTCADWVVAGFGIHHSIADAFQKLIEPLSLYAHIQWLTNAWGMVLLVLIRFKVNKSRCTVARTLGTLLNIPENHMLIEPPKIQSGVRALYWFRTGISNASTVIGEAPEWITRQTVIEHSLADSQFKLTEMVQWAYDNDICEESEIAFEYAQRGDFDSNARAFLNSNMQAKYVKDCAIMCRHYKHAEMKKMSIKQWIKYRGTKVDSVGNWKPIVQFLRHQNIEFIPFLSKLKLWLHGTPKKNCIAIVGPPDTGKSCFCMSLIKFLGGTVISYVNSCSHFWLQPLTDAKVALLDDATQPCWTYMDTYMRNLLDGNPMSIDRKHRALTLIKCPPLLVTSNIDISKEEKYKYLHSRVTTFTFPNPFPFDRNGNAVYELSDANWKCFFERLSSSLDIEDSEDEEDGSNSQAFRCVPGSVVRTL
Experimental: (§2) In vitro HPV E1-E2 binding assay. 300-500 ng protein from HPV16 or HPV11 EE-E1 expressing recombinant baculovirus infected cell nuclear extracts and 80-120 ng from HPV E2 baculovirus infected cell nuclear extracts were incubated in 500 μl NET-gel buffer (50 mM Tris-HCl pH7.5, 150 mM NaCl, 0.1% NP-40, 1 mM EDTA, 0.25% gelatin) at 4° C. for one hour. 1-2 μg anti-EE monoclonal antibody was added and incubated with shaking at 4° C. for one hour. Immune complexes were precipitated with protein-G agarose beads and washed twice for 30 minutes with ice cold NET-gel buffer. Precipitated proteins were detected by Western blot using appropriate primary antibodies and anti-rabbit IgG HRP or anti-mouse IgG HRP (Amersham). Membranes were blocked for one hour in TNET (10 mM Tris 7.5, 2.5 mM EDTA, 50 mM NaCl, 0.1% Tween-20) containing 4% (w/v) dry milk. Washes and antibody reactions were carried out in TNET, and proteins were visualized by chemiluminescence (Reneaissance ECL, NEN) and autoradiography. Bands were quantitated using the NIH image program.
(§3) Very little is known about the physical properties of domains within the papillomavirus E1 and E2 proteins that are involved in intermolecular recognition and association. […] The effect of the E2N-WP15 peptide on these interactions was also assessed. […]

[4] = target: T2, interaction between HPV16 E1 and E2 (Human papillomavirus type 16, UniProt P03114); experiment: In vitro HPV E1-E2 binding assay (co-immunoprecipitation / Western blot), HPV16 E1 and HPV16 E2
T2 construct: made in house; host or cells: Hi-Five insect cells infected with recombinant baculovirus (pVL1392); nuclear extracts
Experimental: as §2
Therefore, we reasoned that a peptide encompassing this domain of HPV16 E2 might inhibit interaction between HPV16 E1 and E2, thereby inhibiting HPV16 DNA replication (FIG. 5). In order to test this possibility, HPV16 E2 and epitope tagged full length HPV16 E1 (EE16-E1) proteins were expressed separately using baculovirus vectors. EE-E1 and associated E2 proteins were immunoprecipitated using an anti-EE epitope monoclonal antibody. Precipitated E2 was detected by Western blot using polyclonal antiserum raised to the DNA binding domain of HPV16 E2 (35). As shown in lane 2 of FIG. 6A, E2 co-immunoprecipitated with EE16-E1, but was not precipitated by the EE epitope antibody in the absence of EE16-E1 (lane 1). Peptides encompassing HPV16 E2 amino acids 29-51 (E2N-WP23) or residues 33-47 (E2N-WP15) of HPV16 E2 were then tested for inhibition of E1-E2 interaction. These peptide sequences were derived from the sequence of HPV16 E2, and were based on an alignment of amino terminal residues that are conserved among the papillomavirus E2 proteins (FIG. 5). […] Both the HPV16 E2 protein itself and the E2 derived peptides act specifically in these assays, since the E39A replication defective HPV16 E2 mutant bound only slightly to EE16-E1 (lanes 14). […] These peptides are named E2N-MP23 and E2N-MP15, respectively (see FIG. 5). […] We have previously shown that a domain spanning amino acids 421-647 of the HPV16 E1 carboxy terminus is necessary and sufficient for E2 interaction (45).

[5] = target: T3, HPV11 E1/E2 interaction (Human papillomavirus 11, UniProt P04014); experiment: In vitro HPV E1-E2 binding assay, HPV11 E1 and HPV11 E2
T3 construct: made in house; host or cells: Hi-Five insect cells infected with recombinant baculoviruses (gift from Louise Chow); nuclear extracts
T3 sequence (P04014 whole entry): as above
Experimental: as §2, §3

[6] = target: T4, epitope tagged full length HPV16 E1 (EE16-E1) (human papillomavirus type 16, UniProt P03114 1-649); experiment: co-immunoprecipitation with anti-EE antibody (data not shown); pair read as HPV16 E1 with HPV11 E2
T4 construct: range 1-649; also called EE-E1; HPV16 EE-E1
T4 sequence: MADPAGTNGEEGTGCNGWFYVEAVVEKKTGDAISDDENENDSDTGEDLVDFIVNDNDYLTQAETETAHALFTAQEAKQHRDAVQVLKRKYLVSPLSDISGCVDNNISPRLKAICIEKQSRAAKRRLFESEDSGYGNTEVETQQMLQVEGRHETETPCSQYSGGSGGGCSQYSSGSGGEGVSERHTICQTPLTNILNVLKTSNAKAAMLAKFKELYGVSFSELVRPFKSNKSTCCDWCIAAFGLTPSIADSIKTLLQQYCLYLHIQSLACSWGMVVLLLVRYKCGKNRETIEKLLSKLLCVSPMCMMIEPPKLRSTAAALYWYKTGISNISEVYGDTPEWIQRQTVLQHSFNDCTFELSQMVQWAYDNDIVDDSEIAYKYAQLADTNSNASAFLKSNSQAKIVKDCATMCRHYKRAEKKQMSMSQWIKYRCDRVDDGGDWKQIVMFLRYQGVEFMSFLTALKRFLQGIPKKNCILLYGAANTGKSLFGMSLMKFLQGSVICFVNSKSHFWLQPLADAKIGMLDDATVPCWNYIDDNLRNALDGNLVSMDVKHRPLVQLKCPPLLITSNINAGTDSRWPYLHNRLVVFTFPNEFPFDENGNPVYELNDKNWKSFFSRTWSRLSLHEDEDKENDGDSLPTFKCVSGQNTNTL

## WKHMRLECAIYYKAR [E2N-WP15]
[1]
  inhibition of in vitro HPV16 DNA replication: could effectively inhibit in vitro replication
[2]
  inhibition of HPV16 E2/HPV11 E1 dependent replication of the HPV11 origin: approximately the same effectiveness as its inhibition of HPV16 E1/E2 mediated in vitro replication
[3]
  inhibition of interaction between HPV11 E1 and HPV16 E2: effectively inhibited
[4]; 50 μM final concentration, added 5 minutes after start of binding reaction, terminated at 60 minutes
  effect on E1-E2 interaction of peptide added at 5 minutes: significant inhibition of subsequent E1-E2 interaction
[4]; 50 μM final concentration, added at or after 10 minutes
  effect on E1-E2 interaction of peptide added at or after 10 minutes: only a minimal effect on the stability of this E1-E2 interaction
[4]; increasing peptide concentrations, FIG. 6A
  inhibition of HPV16 E1-E2 interaction: comparable inhibition of E1-E2 interaction
[4]; inhibition plotted as a function of substrate concentration (data not shown)
  mode of inhibition of E1-E2 interaction: competitive inhibition
[5]
  inhibition of HPV11 E1/E2 interaction: effectively inhibited

B1: HPV11 E2 (other)
chain: MEAIAKRLDACQDQLLELYEENSIDIHKHIMHWKCIRLESVLLHKAKQMGLSHIGLQVVPPLTVSETKGHNAIEMQMHLESLAKTQYGVEPWTLQDTSYEMWLTPPKRCFKKQGNTVEVKFDGCEDNVMEYVVWTHIYLQDNDSWVKVTSSVDAKGIYYTCGQFKTYYVNFNKEAQKYGSTNHWEVCYGSTVICSPASVSSTVREVSIAEPTTYTPAQTTAPTVSACTTEDGVSAPPRKRARGPSTNNTLCVANIRSVDSTINNIVTDNYNKHQRRNNCHSAATPIVQLQGDSNCLKCFRYRLNDKYKHLFELASSTWHWASPEAPHKNAIVTLTYSSEEQRQQFLNSVKIPPTIRHKVGFMSLHLL
[6]
  binding result: no binding

Source: patent publication US6673354B2, “Compositions and methods for treating papillomavirus-infected cells” (priority 1998, dated 2004)
